In article PMC8053042 (Cell chemical biology, 2020):

Molecular target: T1, Doublecortin-like kinase 1 (DCLK1) (Homo sapiens, UniProt O15075)
T1 sequence (O15075 390-647 limits assumed): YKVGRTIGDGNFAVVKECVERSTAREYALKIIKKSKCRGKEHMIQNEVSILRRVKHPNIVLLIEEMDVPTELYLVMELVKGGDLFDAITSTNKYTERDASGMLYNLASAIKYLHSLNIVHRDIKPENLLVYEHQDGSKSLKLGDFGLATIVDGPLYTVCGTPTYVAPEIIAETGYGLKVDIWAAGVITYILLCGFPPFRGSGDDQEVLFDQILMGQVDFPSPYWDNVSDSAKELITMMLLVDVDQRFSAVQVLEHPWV
Assay: peptide substrate mobility shift kinase assay with purified DCLK1 WT
Assay type: biochemical

IC50: 55 nM
Structure (SMILES): COc1cc(N2CCN(C)CC2)ccc1Nc1ncc2c(n1)N(C)c1ccccc1C(=O)N2CC(F)(F)F [DCLK1-IN-1]
